From US20260083864A1, “CONTRAST AGENTS FOR USE IN DIAGNOSTIC COMPUTED TOMOGRAPHY IMAGING” (Bayer Aktiengesellschaft, priority 2022, published 2026) come the findings set out here.

Structures are written as SMILES. A value given as a limit tells only on which side of the number the result lay.

For data set [1], the system named is freshly isolated rat hepatocytes. As to the kind of experiment: Uptake into freshly isolated rat hepatocytes. The settings on record: for Uptake rat hepatocytes: 100 μmol Gd/L, 10 min, 37° C., relative to RC1 (Gd-EOB-DTPA); for Inhibition Rifampicine: rat hepatocyte uptake, test item and Rifampicine 1:1, each 100 μM.
Protocol: After incubation the adherent hepatocytes were washed once with 37° C. Hepes carbonate transport buffer (500 μL/well). The test items and RC1 were prepared from stock solutions (180 to 500 mM concentration) in Hepes carbonate transport buffer at pH 7.4 to reach a final concentration of 100 μmol Gd/L. The specific uptake of the test item or RC1 into rat hepatocytes via OATP1B1 and OATP1B3 was challenged using a known OATP1B1/1B3 inhibitor (Rifampicine, Fa. Sigma R3501, test item and inhibitor 1:1 each 100 μM final concentration). The prepared rat hepatocyte plates were incubated with test solutions (500 μL/well) at 37° C. for 10 min using a thermoshaker (Fa. Grant Bio, PHMP). Triplicates were performed for each test item. After incubating the cells were washed once with cold PBS buffer (Fa. Gibco, Dulbeccos PBS (+)). After washing the intact hepatocytes were lysed by addition of 500 μL cold 0.01% Triton-X 100 in Millipore water for 1 h. […] As a reference standard RC1 is used in the same well plate. The hepatocyte uptake of the test compound is calculated relative to RC1 (resulting in the unit % of RC1).
The target of another data set is T1, OATP1B3 (Homo sapiens, UniProt Q9NPD5).
T1 sequence (Q9NPD5 1-702): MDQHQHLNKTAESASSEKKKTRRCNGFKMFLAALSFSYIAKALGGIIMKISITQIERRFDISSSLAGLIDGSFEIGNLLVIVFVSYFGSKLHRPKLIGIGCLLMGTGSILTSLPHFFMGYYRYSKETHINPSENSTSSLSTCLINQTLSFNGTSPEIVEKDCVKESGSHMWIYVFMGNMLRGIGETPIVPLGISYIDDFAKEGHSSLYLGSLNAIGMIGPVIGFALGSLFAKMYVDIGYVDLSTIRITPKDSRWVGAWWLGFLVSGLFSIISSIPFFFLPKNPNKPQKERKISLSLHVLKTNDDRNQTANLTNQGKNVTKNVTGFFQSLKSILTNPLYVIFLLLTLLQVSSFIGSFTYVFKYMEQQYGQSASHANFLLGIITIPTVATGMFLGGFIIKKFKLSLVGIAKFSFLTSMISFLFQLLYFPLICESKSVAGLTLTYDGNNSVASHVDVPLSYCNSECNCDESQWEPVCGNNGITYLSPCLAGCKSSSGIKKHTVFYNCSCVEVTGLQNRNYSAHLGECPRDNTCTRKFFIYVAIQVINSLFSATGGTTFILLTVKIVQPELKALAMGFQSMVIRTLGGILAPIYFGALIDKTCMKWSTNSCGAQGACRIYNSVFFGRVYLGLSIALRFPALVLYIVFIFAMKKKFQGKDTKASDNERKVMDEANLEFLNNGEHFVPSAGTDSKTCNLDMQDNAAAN
The experiment in a line: Uptake into stable transfected OATP1B3 HEK 293 cells. In kind it is cell-based. The following applies: for Inhibition Rifampicine: uptake into OATP1B3-HEK 293 cells; for Uptake into OATP1B3-HEK 293 cells: 40 min incubation, relative to RC1 (Gd-EOB-DTPA). An outline of the steps: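 HEK 293 cells stably transfected with human OATP1B3 were incubated for 40 min with test items at 100 μM final in transport buffer, in triplicate, then washed with cold PBS. Gadoxetate (Gd-EOB-DTPA) served as the reference standard on the same plate.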

Data set [2] can be described thus: Water solubility in aqueous buffer. The settings on record: aqueous buffer 10 mM Tris-HCl, pH 7.4, 20° C. Here is the method: The solid compounds were added stepwise to the buffer solution. More substance is added once all the suspended material is dissolved until an equilibrium between undissolved and dissolved substance is reached. The suspension was mixed using a shaker (Heidolph Reax 2000) and treated 5 min in an ultrasound bath (Bandelin, Sonorex Super RK255H).

In a further data set the target is T2, OATP1B1 (Homo sapiens, UniProt Q9Y6L6).
T2 sequence (Q9Y6L6 1-691): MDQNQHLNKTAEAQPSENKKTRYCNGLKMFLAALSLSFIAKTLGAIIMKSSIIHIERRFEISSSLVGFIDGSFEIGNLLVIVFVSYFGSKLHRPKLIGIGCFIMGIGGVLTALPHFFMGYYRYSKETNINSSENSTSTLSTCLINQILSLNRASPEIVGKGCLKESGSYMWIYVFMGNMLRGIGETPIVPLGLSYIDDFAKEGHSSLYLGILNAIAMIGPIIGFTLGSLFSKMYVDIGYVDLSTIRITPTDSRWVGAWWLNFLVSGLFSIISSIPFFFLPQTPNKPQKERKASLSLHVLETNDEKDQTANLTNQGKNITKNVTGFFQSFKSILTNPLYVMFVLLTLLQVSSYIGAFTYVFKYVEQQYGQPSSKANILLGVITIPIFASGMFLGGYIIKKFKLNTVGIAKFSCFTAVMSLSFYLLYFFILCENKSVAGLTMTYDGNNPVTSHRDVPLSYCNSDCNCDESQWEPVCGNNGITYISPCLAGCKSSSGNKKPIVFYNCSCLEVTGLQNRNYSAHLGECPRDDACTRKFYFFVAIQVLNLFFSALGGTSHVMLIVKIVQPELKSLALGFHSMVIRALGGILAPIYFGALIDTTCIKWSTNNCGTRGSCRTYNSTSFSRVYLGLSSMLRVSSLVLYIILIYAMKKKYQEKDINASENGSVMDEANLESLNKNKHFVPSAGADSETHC
The experiment in a line: Uptake into stable transfected OATP1B1 HEK 293 cells. The following applies: for Inhibition Rifampicine: uptake into OATP1B1-HEK 293 cells; for Uptake into OATP1B1-HEK 293 cells: 40 min incubation, relative to RC1 (Gd-EOB-DTPA). It counts as cell-based. The method in brief:
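Uptake measured in triplicate after a 40 min, unshaken exposure of OATP1B1-expressing HEK293 cells to 100 µM (final) compound in transport buffer. Cold PBS wash stopped uptake; Gd-EOB-DTPA served as reference standard within each plate.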

Data set [3] can be described thus: Partition coefficient (log P butanol/buffer). The following applies: 1-butanol / 50 mM Tris-HCl, pH 7.4, room temperature. In kind it is physicochemical.
Data set [4] is described as follows: Relaxivity measurements at 1.41 T in human plasma. The following applies: 37° C., normalized to Gd. In kind it is physicochemical. An outline of the steps:
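T1 determined by inversion recovery (8 inversion-time steps) and T2 by CPMG sequence, both with relaxation delay ≥5×T1. Each relaxivity used three Gd concentrations between 0.05 and 2 mM. Relaxivities were derived from relaxation rates measured in water and plasma.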

The nature of data set [5]: Relaxivity measurements at 1.41 T in water. It counts as physicochemical. The following applies: 37° C., normalized to Gd. An outline of the steps:
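T1 by inversion recovery and T2 by CPMG at 1.41 T (60 MHz), 37° C, relaxation delay ≥5×T1. Three Gd concentrations between 0.05 and 2 mM; relaxivities derived from measured relaxation rates in water.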

Regarding `CCOCCOCCOc1ccc(CCC[C@H](C(=O)O)N2CCN([C@@H](CO)C(=O)[O-])CCN([C@@H](CO)C(=O)[O-])CCN([C@@H](CO)C(=O)[O-])CC2)cc1.[Gd+3]` [Example 18, gadolinium (2S,2'S,2″'S)-2,2′,2″-{10-[(1R)-1-carboxy-4-{4-[2-(2-ethoxyethoxy)ethoxy]phenyl}butyl]-1,4,7,10-tetraazacyclododecane-1,4,7-triyl}tris(3-hydroxypropanoate)], in data set [1], the Uptake rat hepatocytes was 75 % of RC1. Moreover, the “Inhibition Rifampicine” value came to 91 % inhibition in data set [1], 96 % inhibition at OATP1B3 and 76 % inhibition at OATP1B1. Besides, in data set [2], the Solubility is over 354 mM. Moreover, in data set [3], the “Log P (partition coefficient butanol/buffer)” value was −1.11. For the same compound, in data set [4], the r1 human plasma is 7.7 L/mmol/s. Besides, in data set [5], the r1 water amounted to 5.5 L/mmol/s.
For `CCOCCOCCOc1ccc(CCC[C@H](C(=O)O)N2CCN([C@H](CO)C(=O)[O-])CCN([C@H](CO)C(=O)[O-])CCN([C@H](CO)C(=O)[O-])CC2)cc1.[Gd+3]` [Example 19, gadolinium (2R,2′R,2″R)-2,2′,2″-{10-[(1R)-1-carboxy-4-{4-[2-(2-ethoxyethoxy)ethoxy]phenyl}butyl]-1,4,7,10-tetraazacyclododecane-1,4,7-triyl}tris(3-hydroxypropanoate)], the Uptake rat hepatocytes in data set [1] is listed as 92 % of RC1. In addition, the “Inhibition Rifampicine” value in data set [1] worked out at 92 % inhibition; on OATP1B3, 96 % inhibition; on OATP1B1, 92 % inhibition. The compound further returned a Solubility in data set [2] of over 410 mM. Besides, the “Log P (partition coefficient butanol/buffer)” value in data set [3] is −0.95. Also, the r1 human plasma in data set [4] came to 9.0 L/mmol/s. The same compound returned a r1 water in data set [5] of 5.3 L/mmol/s.
Take `CCOCCOCCOc1ccc(CCC[C@@H](C(=O)O)N2CCN([C@H](CO)C(=O)[O-])CCN([C@H](CO)C(=O)[O-])CCN([C@H](CO)C(=O)[O-])CC2)cc1.[Gd+3]` [Example 20, gadolinium (2R,2′R,2″R)-2,2′,2″-{10-[(1S)-1-carboxy-4-{4-[2-(2-ethoxyethoxy)ethoxy]phenyl}butyl]-1,4,7,10-tetraazacyclododecane-1,4,7-triyl}tris(3-hydroxypropanoate)]: the Uptake rat hepatocytes in data set [1] is recorded as 71 % of RC1. For the same compound, the “Inhibition Rifampicine” value in data set [1] is 91 % inhibition; at OATP1B3, 99 % inhibition; on OATP1B1 it was 87 % inhibition. This compound also had a Solubility in data set [2] of over 381 mM. For the same compound, the “Log P (partition coefficient butanol/buffer)” value in data set [3] is −1.11. This compound gave a r1 human plasma in data set [4] of 9.8 L/mmol/s. The compound further came in with a r1 water in data set [5] of 5.6 L/mmol/s.
Take `CCOCCOCCOc1ccc(CC(C(=O)O)N2CCN(CC(=O)[O-])CCN(CC(=O)[O-])CCN(CC(=O)[O-])CC2)nc1.[Gd+3]` (centres unmarked) [Example 23, gadolinium 2,2′,2″-{10-[1-carboxy-2-{5-[2-(2-ethoxyethoxy)ethoxy]pyridin-2-yl}ethyl]-1,4,7,10-tetraazacyclododecane-1,4,7-triyl}triacetate]: in data set [1], the Uptake rat hepatocytes is on record as 17 % of RC1. For the same compound, the entries for the “Inhibition Rifampicine” value (in data set [1]; on OATP1B3; on OATP1B1) were 73 % inhibition, 71 % inhibition and 0 % inhibition, respectively. In data set [2], this compound showed a Solubility of over 241 mM. For the same compound, in data set [3], the “Log P (partition coefficient butanol/buffer)” value was −1.94. Moreover, the r1 human plasma in data set [4] is 6.0 L/mmol/s. In data set [5], this compound returned a r1 water of 4.5 L/mmol/s.
For `CCCOc1ccc(CCC(C(=O)O)N2CCN(CC(=O)[O-])CCN(CC(=O)[O-])CCN(CC(=O)[O-])CC2)cc1.[Gd+3]` (centres unmarked) [Example 24, gadolinium 2,2′,2″-{10-[1-carboxy-3-(4-propoxyphenyl)propyl]-1,4,7,10-tetraazacyclododecane-1,4,7-triyl}triacetate], in data set [1], the Uptake rat hepatocytes is reported as 40 % of RC1 and the “Inhibition Rifampicine” value came out at 96 % inhibition. Further, on OATP1B3, the “Uptake into OATP1B3-HEK 293 cells” value is 17 % of RC1 and the “Inhibition Rifampicine” value is 94 % inhibition. The Solubility in data set [2] is over 261 mM. Also, at OATP1B1, the “Uptake into OATP1B1-HEK 293 cells” value is reported as 229 % of RC1 and the “Inhibition Rifampicine” value turned out to be 87 % inhibition. Also, the “Log P (partition coefficient butanol/buffer)” value in data set [3] was −0.71. In data set [4], the r1 human plasma came to 8.8 L/mmol/s. The compound further returned a r1 water in data set [5] of 4.1 L/mmol/s.
In the case of `CCCC(C(=O)[O-])N1CCN(CC(=O)[O-])CCN(C(Cc2ccc(OCC)cc2)C(=O)O)CCN(CC(=O)[O-])CC1.[Gd+3]` (centres unmarked) [Example 29, gadolinium 2-{7-[1-carboxy-2-(4-ethoxyphenyl)ethyl]-4,10-bis(carboxylatomethyl)-1,4,7,10-tetraazacyclododecan-1-yl}pentanoate], in data set [1], the Uptake rat hepatocytes is on record as 87 % of RC1 and the “Inhibition Rifampicine” value is reported as 99 % inhibition. For the same compound, on OATP1B3, the “Uptake into OATP1B3-HEK 293 cells” value is on record as 75 % of RC1 and the “Inhibition Rifampicine” value is on record as 99 % inhibition. The same compound returned a Solubility in data set [2] of over 305 mM. On OATP1B1, the “Uptake into OATP1B1-HEK 293 cells” value is 493 % of RC1 and the “Inhibition Rifampicine” value was determined as 96 % inhibition. The “Log P (partition coefficient butanol/buffer)” value in data set [3] is −0.53. The r1 human plasma in data set [4] was 7.5 L/mmol/s. The r1 water in data set [5] worked out at 4.4 L/mmol/s.
Consider `CCCC(C(=O)[O-])N1CCN(CC(=O)[O-])CCN(C(Cc2ccc(OCC)cc2)C(=O)O)CCN(CC(=O)[O-])CC1.[Gd+3]` (centres unmarked) [Example 30, gadolinium 2-{7-[1-carboxy-2-(4-ethoxyphenyl)ethyl]-4,10-bis(carboxylatomethyl)-1,4,7,10-tetraazacyclododecan-1-yl}pentanoate], for which, in data set [1], the Uptake rat hepatocytes is reported as 75 % of RC1 and the “Inhibition Rifampicine” value turned out to be 99 % inhibition. Moreover, at OATP1B3, the “Uptake into OATP1B3-HEK 293 cells” value is recorded as 62 % of RC1 and the “Inhibition Rifampicine” value is listed as 98 % inhibition. This compound also showed a Solubility in data set [2] of over 35 mM. At OATP1B1, the “Uptake into OATP1B1-HEK 293 cells” value is given as 169 % of RC1 and the “Inhibition Rifampicine” value is 90 % inhibition. Besides, the “Log P (partition coefficient butanol/buffer)” value in data set [3] is recorded as −0.60. In data set [4], this compound yielded a r1 human plasma of 7.6 L/mmol/s. This compound gave a r1 water in data set [5] of 4.7 L/mmol/s.

For orientation: Solubility means the concentration that dissolves in the medium under given conditions. Lower therefore signals little dissolved substance.
